{"source": "patent US20080267905A1", "about": "“Methods and Compositions Using Selective Cytokine Inhibitory Drugs for Treatment and Management of Cancers and Other Diseases” (CELGENE CORPORATION, priority 2004, published 2008)", "key": {"[1]": {"experiment": "Cardiovascular and respiratory function in anesthetized dogs", "format": "in vivo", "conditions": "anesthetized Beagle dogs", "procedure": "The effects of 3-(3,4-dimethoxy-phenyl)-3-(1-oxo-1,3-dihydro-isoindol-2-yl)-propionamide on cardiovascular and respiratory function are investigated in anesthetized dogs. Two groups of Beagle dogs (2/sex/group) are used. One group receives three doses of vehicle only and the other receives three ascending doses of the compound (200, 400, and 800 mg/kg). In all cases, doses of the compound or vehicle are successively administered via infusion through the jugular vein separated by intervals of at least 30 minutes."}, "TNF-α production": {"test_system": "TNF-α production", "experiment": "Inhibition of TNF-α production following LPS-stimulation of human PBMC and human whole blood (in vitro cytokine studies)", "format": "cell-based", "conditions": "compared with thalidomide", "from_the_text": "In a specific embodiment, the pharmacological properties of 3-(3,4-dimethoxy-phenyl)-3-(1-oxo-1,3-dihydro-isoindol-2-yl)-propionamide are characterized in in vitro studies. Studies examine the effects of the compound on the production of various cytokines. Inhibition of TNF-α production following LPS-stimulation of human PBMC and human whole blood by the compound is investigated in vitro. […] The pharmacological effects of 3-(3,4-dimethoxy-phenyl)-3-(1-oxo-1,3-dihydro-isoindol-2-yl)-propionamide may derive from its action as an inhibitor of the generation of inflammatory cytokines."}}}
{"smiles": "COc1ccc(C(CC(N)=O)N2Cc3ccccc3C2=O)cc1OC", "note": "(stereo not drawn) [3-(3,4-dimethoxy-phenyl)-3-(1-oxo-1,3-dihydro-isoindol-2-yl)-propionamide]", "values": [{"measurement": "cardiovascular and respiratory changes", "setting": "[1]; all doses (200, 400, and 800 mg/kg), infusion through the jugular vein, compared to vehicle control group", "result": "minimal"}, {"measurement": "deviations in femoral blood flow, respiratory parameters, and Qtc interval", "setting": "[1]; common to both the control and treated groups", "result": "not considered treatment-related"}, {"measurement": "arterial blood pressure", "setting": "[1]; following administration of the low dose, only statistically significant difference vs vehicle", "result": "small increase"}, {"measurement": "arterial blood pressure effect at higher doses", "setting": "[1]; higher doses", "result": "not seen at higher doses"}, {"measurement": "duration of the arterial blood pressure effect", "setting": "[1]; low dose", "result": "approximately 15 minutes"}, {"measurement": "pharmacological activity profile, potency relative to thalidomide", "setting": "TNF-α production", "result": "five to fifty times more potent than thalidomide"}]}
